Target: T1, 5-Lipoxygenase (Rattus norvegicus, UniProt P12527)
T1 sequence (P12527 1-673): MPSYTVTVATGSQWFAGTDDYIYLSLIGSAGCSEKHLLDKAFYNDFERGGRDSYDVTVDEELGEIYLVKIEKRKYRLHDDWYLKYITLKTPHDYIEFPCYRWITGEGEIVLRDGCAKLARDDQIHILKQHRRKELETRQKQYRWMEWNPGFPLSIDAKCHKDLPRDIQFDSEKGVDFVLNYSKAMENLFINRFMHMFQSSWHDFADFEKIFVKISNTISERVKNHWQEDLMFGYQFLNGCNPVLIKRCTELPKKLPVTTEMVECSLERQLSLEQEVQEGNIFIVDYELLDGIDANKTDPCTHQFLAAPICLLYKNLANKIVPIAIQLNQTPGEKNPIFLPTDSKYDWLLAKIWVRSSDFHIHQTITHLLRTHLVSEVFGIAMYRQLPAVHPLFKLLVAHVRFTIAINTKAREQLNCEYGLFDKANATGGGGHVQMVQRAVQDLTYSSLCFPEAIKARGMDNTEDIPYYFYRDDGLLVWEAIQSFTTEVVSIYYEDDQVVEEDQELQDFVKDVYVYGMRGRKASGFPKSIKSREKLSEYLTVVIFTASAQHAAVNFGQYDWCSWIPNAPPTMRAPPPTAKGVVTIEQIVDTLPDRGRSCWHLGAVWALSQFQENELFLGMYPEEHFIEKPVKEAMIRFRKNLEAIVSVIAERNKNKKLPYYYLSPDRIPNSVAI
Experiment: 5-lipoxygenase inhibition by boswellic acids (stimulated neutrophil granulocytes from rat peritoneum)
Type: cell-based, Ratte
Settings: read-out: IC50-Werte für die 5-LO-Hemmung
From the text: Mit Hilfe des Testes mit Calcium- und Ionophor-stimulierten neutrophilen Leukozyten der Ratte konnte nachgewiesen werden, daß Extrakte aus Boswellia serrata vorwiegend die Bildung von Leukotrienen blockieren, dagegen die Prostaglandinsynthese erst in wesentlich höheren Konzentrationen beeinflussen (vgl. zur Methodik: a) Messung der Leukotriene: Safayhi et al., Biochem. Pharmacology, 34:2691-2694, 1985; b) Messung der Prostaglandine: Kommerzielle Radio-Immunoassay-Kits der Firma Amersham für 6-Keto-PGF1α).
Anhand der beigefügten Zeichnungen wird die Erfindung näher erläutert. […] Methode: Safayhi et al., JPET accepted. • Fig. 4 die Elutionsprofile der durch Eisen/Ascorbat-Stimulation aus exogener Arachidonsäure im zellfreien System entstehenden oxidierten und hydroxylierten Produkte in Gegenwart steigender Konzentrationen von Acetyl-boswelliasäure (A) und Nordihydroguaiaretsäure (B). Methode: Safayhi et al., JPET accepted.

Row | Structure (SMILES) | IC50
1 | CC1(C)CC[C@]2(C)CC[C@]3(C)C(=CC[C@@H]4[C@@]5(C)CC[C@@H](O)[C@](C)(C(=O)O)[C@@H]5CC[C@]43C)[C@@H]2C1 [α-Boswelliasäure] | 5 µM
2 | CC(=O)O[C@@H]1CC[C@@]2(C)[C@@H](CC[C@]3(C)[C@@H]2CC=C2[C@@H]4CC(C)(C)CC[C@]4(C)CC[C@]23C)[C@@]1(C)C(=O)O [Acetyl-α-boswelliasäure] | 7 µM
3 | CC(=O)O[C@@H]1CC[C@@]2(C)[C@@H](CC[C@]3(C)[C@@H]2C(=O)C=C2[C@@H]4[C@@H](C)[C@H](C)CC[C@]4(C)CC[C@]23C)[C@@]1(C)C(=O)O [Acetyl-11-keto-ß-boswelliasäure] | 2 µM
4 | C[C@H]1[C@H](C)CC[C@]2(C)CC[C@]3(C)C(=CC(=O)[C@@H]4[C@@]5(C)CC[C@@H](O)[C@](C)(C(=O)O)[C@@H]5CC[C@]43C)[C@H]12 [11-Keto-ß-boswelliasäure] | 5 µM
5 | C[C@H]1[C@H](C)CC[C@]2(C)CC[C@]3(C)C(=CC[C@@H]4[C@@]5(C)CC[C@@H](O)[C@](C)(C(=O)O)[C@@H]5CC[C@]43C)[C@H]12 [ß-Boswelliasäure] | 5 µM
6 | CC(=O)O[C@@H]1CC[C@@]2(C)[C@@H](CC[C@]3(C)[C@@H]2CC=C2[C@@H]4[C@@H](C)[C@H](C)CC[C@]4(C)CC[C@]23C)[C@@]1(C)C(=O)O [Acetyl-boswelliasäure] | 7 µM
